In PubChem BioAssay AID2060909 (Molecular Pharmacology Branch, DTP, NCI, 2025):

Tested on: 362531-283-R-J2-PDC complex spheroid viability
Assay: Anticancer human tumor 362531-283-R-J2-PDC patient-derived colon adenocarcinoma cell line growth inhibition [RAS]
Conditions: for IC50: curve of first compound; for viability, T/C: stronger effect = lower value
Text: RAS pathway inhibitors in Combinations in Complex Spheroids
A high-throughput screen of multi-cell type tumor spheroids was designed to identify active combinations of RAS pathway inhibitors and targeted small molecules. Complex spheroids include a stromal component modeled by human endothelial cells (HUVEC) and fibroblasts modeled by human mesenchymal stem cells (MSCs). The concentration ranges selected for each drug and investigational agent were based upon clinically achievable concentrations if the clinical Cmax of the agent was known.
Compounds. The drugs and investigational agents: abemaciclib (NSC768073), cobimetinib (NSC768068), divarasib (GDC6063, NSC841802), docetaxel (NSC628503), GDC-1971 (RLY-1971, NSC841576), gemcitabine (NSC613327), inavolisib (NSC800729), ipatasertib (NSC767898), KB-0742 (NSC834161), MRTX-1133 (NSC836407), osimertinib (NSC779217), RMC-4630 (NSC839698), RMC-6236 (NSC851965), RMC-6291 (NSC852671), Ro-3306 (NSC812927), sapanisertib (NSC764658), SN-38 (NSC673596), staurosporine (NSC755774), SY5609 (NSC837396), and tovorafenib (DAY101, NSC766906), were obtained from the National Cancer Institute (NCI) Developmental Therapeutics Program Chemical Repository. The FDA-approved anticancer drug set is available from the NCI Developmental Therapeutics Program. […] The stock solutions were prepared in dimethyl sulfoxide (DMSO, Sigma-Aldrich, St. Louis, MO, cat. D2650) at 800-fold the tested concentration and stored at -70 degrees C prior to their use. All drugs and investigational agents were tested over a range starting from a high concentration at or near the clinical Cmax and decreasing in half-log increments. If the clinical Cmax for an agent had not been determined, the highest concentration tested was 10 microM.
Cell Culture. All cells were maintained in an incubator at 37 degrees C and 5% CO2 with 95% humidity. The PDC lines were cultured according to standard operating procedures established by the NCI PDMR. All PDCs were thawed and cultured in Matrigel-coated flasks prepared with a working solution of 1X Ham's F-12 nutrient mix, without supplementation (Invitrogen, Waltham, MA, cat. 11765054), 100 U/mL penicillin-streptomycin (Invitrogen, cat. 15140122), and 2.5% Matrigel (Corning Inc., Corning, NY, cat. 354248) for the first three passages. The 362531-283-R-J2-PDC and 782815-120-R-J1-PDC lines were cultured in 6C/Colon 1B media, which includes advanced DMEM/F-12 (Thermo Fisher Scientific, cat. 12634028), 10 mM HEPES (Thermo Fisher Scientific, cat. 15630080), 1X GlutaMAX supplement (Thermo Fisher Scientific, cat. 35050061), 0.1 mg/mL primocin (InvivoGen, San Diego, CA, cat. ant-pm-2), 10% defined fetal bovine serum, heat inactivated (HyClone Laboratories Inc., Logan, UT, cat. SH30070.03HI), 50% L-WRN conditioned media (ATCC, cat. CRL-3276), 1.25 mM N-Acetyl-L-cysteine (Sigma-Aldrich, cat. A9165), 10 mM nicotinamide (Sigma-Aldrich, cat. N0636), 1X B-27 supplement (Thermo Fisher Scientific, cat. 17504044), 1X N-2 supplement (Thermo Fisher Scientific, cat. 17502048), 50 ng/mL human EGF (Thermo Fisher Scientific, cat. PHG0311), and 10 microM Y-27632 dihydrochloride (Tocris Bioscience, cat. 1254). The K12877-001-R-J1-PDC line was cultured in 6I media, which includes all 6C/Colon 1B media plus 10 ng/mL human FGF-10 (PeproTech, cat. 100-26), 1 ng/mL human FGF-2 (PeproTech, cat. 100-18B), 1 µM prostaglandin E2 (Tocris Bioscience, cat. 2296), […] hydrocortisone (Sigma-Aldrich, cat. H4001), and […] bovine insulin (Sigma-Aldrich, cat. I6634). The K86415-001-R-J1-PDC line was cultured in 6D media, which includes all 6C/Colon 1B media components minus the L-WRN conditioned media. The 485176-168-R4-J1-PDC was cultured in PANC media, which includes all 6C/Colon 1B media plus 100 ng/mL human FGF-10 (PeproTech, cat. 100-26), 500 nM SB-431542 (Selleckchem, cat. S1067), and 10 nM gastrin (Tocris Bioscience, cat. 3006). […]
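Note: spheroids exposed to the agents for 7 days before readout.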
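Throughout, for viability, T/C: luminescence viability as percent of DMSO vehicle control wells.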

Q: Which IC50 (second compound 0.000949 µM) does the source give for `CC1(C)CCC(Nc2ncc(C(F)(F)F)c(-c3c[nH]c4c(P(C)(C)=O)c(C#N)ccc34)n2)CN1` (configuration not stated) + CCn1c(-c2cc(N3CCN(C)CC3)cnc2C(C)OC)c2c3cc(ccc31)-c1csc(n1)CC(NC(=O)C1CC1C)C(=O)N1CCCC(N1)C(=O)OCC(C)(C)C2 here?
A: > 300 nM

Q: What about the IC50 (second compound 0.003 µM) of the same compound?
A: > 300 nM

Q: And the IC50 (second compound 0.00949 µM)?
A: > 300 nM

Q: What about the IC50 (second compound 0.03 µM) of the same compound?
A: > 300 nM

Q: What about the IC50 (second compound 0.0949 µM) of the same compound?
A: > 300 nM

Q: And the IC50 (second compound 0.3 µM)?
A: < 0.949 nM

Q: And the viability, T/C (second compound 0.000949 µM, first compound 0.000949 µM)?
A: 104%

Q: And the viability, T/C (second compound 0.000949 µM, first compound 0.003 µM)?
A: 97.3%

Q: What about the viability, T/C (second compound 0.000949 µM, first compound 0.00949 µM) of the same compound?
A: 100%

Q: And the viability, T/C (second compound 0.000949 µM, first compound 0.03 µM)?
A: 99.7%

Q: What about the viability, T/C (second compound 0.000949 µM, first compound 0.0949 µM) of the same compound?
A: 93%

Q: What about the viability, T/C (second compound 0.000949 µM, first compound 0.3 µM) of the same compound?
A: 95.1%

Q: What about the viability, T/C (second compound 0.003 µM, first compound 0.000949 µM) of the same compound?
A: 104%

Q: What about the viability, T/C (second compound 0.003 µM, first compound 0.003 µM) of the same compound?
A: 102%

Q: What about the viability, T/C (second compound 0.003 µM, first compound 0.00949 µM) of the same compound?
A: 104%

Q: What about the viability, T/C (second compound 0.003 µM, first compound 0.03 µM) of the same compound?
A: 97.1%

Q: And the viability, T/C (second compound 0.003 µM, first compound 0.0949 µM)?
A: 101%

Q: And the viability, T/C (second compound 0.003 µM, first compound 0.3 µM)?
A: 95.3%

Q: And the viability, T/C (second compound 0.00949 µM, first compound 0.000949 µM)?
A: 103%

Q: What about the viability, T/C (second compound 0.00949 µM, first compound 0.003 µM) of the same compound?
A: 110%

Q: What about the viability, T/C (second compound 0.00949 µM, first compound 0.00949 µM) of the same compound?
A: 101%

Q: What about the viability, T/C (second compound 0.00949 µM, first compound 0.03 µM) of the same compound?
A: 100%

Q: And the viability, T/C (second compound 0.00949 µM, first compound 0.0949 µM)?
A: 105%

Q: What about the viability, T/C (second compound 0.00949 µM, first compound 0.3 µM) of the same compound?
A: 104%

Q: What about the viability, T/C (second compound 0.03 µM, first compound 0.000949 µM) of the same compound?
A: 101%

Q: What about the viability, T/C (second compound 0.03 µM, first compound 0.003 µM) of the same compound?
A: 107%

Q: And the viability, T/C (second compound 0.03 µM, first compound 0.00949 µM)?
A: 93.7%

Q: What about the viability, T/C (second compound 0.03 µM, first compound 0.03 µM) of the same compound?
A: 92.9%

Q: What about the viability, T/C (second compound 0.03 µM, first compound 0.0949 µM) of the same compound?
A: 98.6%

Q: And the viability, T/C (second compound 0.03 µM, first compound 0.3 µM)?
A: 98.5%

Q: And the viability, T/C (second compound 0.0949 µM, first compound 0.000949 µM)?
A: 85%

Q: What about the viability, T/C (second compound 0.0949 µM, first compound 0.003 µM) of the same compound?
A: 82%

Q: And the viability, T/C (second compound 0.0949 µM, first compound 0.00949 µM)?
A: 75.9%

Q: And the viability, T/C (second compound 0.0949 µM, first compound 0.03 µM)?
A: 82.2%

Q: And the viability, T/C (second compound 0.0949 µM, first compound 0.0949 µM)?
A: 82.2%

Q: And the viability, T/C (second compound 0.0949 µM, first compound 0.3 µM)?
A: 102%

Q: What about the viability, T/C (second compound 0.3 µM, first compound 0.000949 µM) of the same compound?
A: 40.9%

Q: What about the viability, T/C (second compound 0.3 µM, first compound 0.003 µM) of the same compound?
A: 52%

Q: What about the viability, T/C (second compound 0.3 µM, first compound 0.00949 µM) of the same compound?
A: 60.3%

Q: And the viability, T/C (second compound 0.3 µM, first compound 0.03 µM)?
A: 58.7%

Q: And the viability, T/C (second compound 0.3 µM, first compound 0.0949 µM)?
A: 68.5%

Q: And the viability, T/C (second compound 0.3 µM, first compound 0.3 µM)?
A: 76.8%
